Experimental data published in US6737383B1, “Herbicidal oxadiazolidines” (priority 1999, dated 2004).

How the values were obtained:
annual bluegrass = assay: Test E annual bluegrass; type: in vivo, Poa annua; details: Postemergence
Procedure: (§1) Compounds evaluated in this test were formulated in a non-phytotoxic solvent mixture which included a surfactant and applied to plants that were in the 1- to 4-leaf stage (postemergence application). A mixture of sandy loam soil and greenhouse potting mix in a 60:40 ratio was used for the postemergence test.
(§2) Plantings of these crops and weed species were adjusted to produce plants of appropriate size for the postemergence test. All plant species were grown using normal greenhouse practices. Crop and weed species include annual bluegrass (Poa annua), blackgrass (Alopecurus myosuroides), black nightshade (Solanum nigra), chickweed (Stellaria media), common poppy (Papaver rhoeas), deadnettle (Lamium amplexicaule), downy brome (Bromus tectorum), field violet (Viola arvensis), galium (Galium aparine), green foxtail (Setaria viridis), Italian ryegrass (Lolium multiflorum), jointed goatgrass (Aegilops cylindrica), kochia (Kochia scoparia), lambsquarters (Chenopodium album), littleseed canarygrass (Phalaris minor), rape (Brassica napus), redroot pigweed (Amaranthus retroflexus), Russian thistle (Salsola kali), scentless chamomile (Matricaria inodora), spring barley (Hordeum vulgare), sugar beet (Beta vulgaris), sunflower (Helianthus annuus), ivyleaf speedwell (Veronica hederaefolia), spring wheat (Triticum aestivum), winter wheat (Triticum aestivum), wild buckwheat (Polygonum convolvulus), wild mustard (Sinapis arvensis), wild oat (Avena fatua), windgrass (Apera spica-venti) and winter barley (Hordeum vulgare).
(§3) Treated plants and untreated controls were maintained in a greenhouse for approximately 21 to 28 days, after which all treated plants were compared to untreated controls and visually evaluated. […] A dash response (-) means no test result.

chickweed = assay: Test E chickweed; type: in vivo, Stellaria media; details: Postemergence
Procedure: as §1, §2, §3

deadnettle = assay: Test E deadnettle; type: in vivo, Lamium amplexicaule; details: Postemergence
Summary of the method: (§4)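 Greenhouse test: for postemergence, foliar application at 1- to 4-leaf stage; compound in non-phytotoxic solvent with surfactant. Rating is visual, relative to untreated controls, about 21 to 28 days after treatment.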

galium [1] = assay: Test E galium; type: in vivo, Galium aparine; details: Postemergence
Procedure: […] A mixture of sandy loam soil and greenhouse potting mix in a 60:40 ratio was used for the postemergence test.
as §2, §3

green foxtail = assay: Test E green foxtail; type: in vivo, Setaria viridis; details: Postemergence
Summary of the method: as §4

Italian ryegrass = assay: Test E Italian ryegrass; type: in vivo, Lolium multiflorum; details: Postemergence
Procedure: as §1, §2, §3

kochia [2] = assay: Test E kochia; type: in vivo, Kochia scoparia; details: Postemergence
Procedure: as §1, §2, §3

littleseed canarygrass = assay: Test E littleseed canarygrass; type: in vivo, Phalaris minor; details: Postemergence
Procedure: as §1, §2, §3

redroot pigweed [3] = assay: Test E redroot pigweed; type: in vivo, Amaranthus retroflexus; details: Postemergence
Procedure: as §1, §2, §3

scentless chamomile = assay: Test E scentless chamomile; type: in vivo, Matricaria inodora; details: Postemergence
Procedure: as §1, §2, §3

spring barley [4] = assay: Test E spring barley; type: in vivo, Hordeum vulgare; details: Postemergence
Summary of the method: as §4

ivyleaf speedwell = assay: Test E postemergence ivyleaf speedwell; type: in vivo, Veronica hederaefolia
Procedure: as §1, §2, §3

spring wheat = assay: Test E spring wheat; type: in vivo, Triticum aestivum; details: Postemergence
Summary of the method: as §4

wild buckwheat [5] = assay: Test E wild buckwheat; type: in vivo, Polygonum convolvulus; details: Postemergence
Procedure: as §1, §2, §3

wild oat = assay: Test E wild oat; type: in vivo, Avena fatua; details: Postemergence
Procedure: as §1, §2, §3

winter barley = assay: Test E winter barley; type: in vivo, Hordeum vulgare; details: Postemergence
Procedure: as §1, §2, §3

downy brome = assay: Test E downy brome; type: in vivo, Bromus tectorum; details: Preemergence
galium [6] = assay: Test E galium; type: in vivo, Galium aparine; details: Preemergence
jointed goatgrass = assay: Test E jointed goatgrass; type: in vivo, Aegilops cylindrica; details: Preemergence
kochia [7] = assay: Test E kochia; type: in vivo, Kochia scoparia; details: Preemergence
lambsquarters = assay: Test E lambsquarters; type: in vivo, Chenopodium album; details: Preemergence
redroot pigweed [8] = assay: Test E redroot pigweed; type: in vivo, Amaranthus retroflexus; details: Preemergence
spring barley [9] = assay: Test E spring barley; type: in vivo, Hordeum vulgare; details: Preemergence
sunflower = assay: Test E sunflower; type: in vivo, Helianthus annuus; details: Preemergence
wild buckwheat [10] = assay: Test E wild buckwheat; type: in vivo, Polygonum convolvulus; details: Preemergence
windgrass = assay: Test E windgrass; type: in vivo, Apera spica-venti; details: Preemergence
[11] = Rate 250 g/ha, 0 to 100 scale (0 no effect, 100 complete control)
[12] = Rate 62 g/ha, 0 to 100 scale, 0 no effect, 100 complete control
[13] = Rate 125 g/ha, 0 to 100 scale (0 no effect, 100 complete control)

C=CCn1c(=O)on(C(=O)N(c2ccccc2)C(C)C)c1=O [Compound 93]
Plant response rating, Annual bluegras (annual bluegrass; Rate 62 g/ha, 0 to 100 scale): 20 | Plant response rating, Annual bluegras (annual bluegrass; Rate 125 g/ha, 0 to 100 scale): 20 | Plant response rating, Annual bluegras (annual bluegrass; [11]): 50 | Plant response rating, Chickweed (chickweed; Rate 62 g/ha, 0 to 100 scale): 0 | Plant response rating, Chickweed (chickweed; Rate 125 g/ha, 0 to 100 scale): 0 | Plant response rating, Chickweed (chickweed; [11]): 0 | Plant response rating, Deadnettle (deadnettle; Rate 62 g/ha, 0 to 100 scale): 0 | Plant response rating, Deadnettle (deadnettle; Rate 125 g/ha, 0 to 100 scale): 0 | Plant response rating, Deadnettle (deadnettle; [11]): 0 | Plant response rating, Galium (galium [1]; Rate 62 g/ha, 0 to 100 scale): 0 | Plant response rating, Galium (galium [1]; Rate 125 g/ha, 0 to 100 scale): 0 | Plant response rating, Galium (galium [1]; [11]): 0 | Plant response rating, Green foxtail (green foxtail; Rate 62 g/ha, 0 to 100 scale): 0 | Plant response rating, Green foxtail (green foxtail; Rate 125 g/ha, 0 to 100 scale): 0 | Plant response rating, Green foxtail (green foxtail; [11]): 0 | Plant response rating, I. Ryegrass (Italian ryegrass; Rate 62 g/ha, 0 to 100 scale): 0 | Plant response rating, I. Ryegrass (Italian ryegrass; Rate 125 g/ha, 0 to 100 scale): 0 | Plant response rating, I. Ryegrass (Italian ryegrass; [11]): 0 | Plant response rating, Kochia (kochia [2]; Rate 62 g/ha, 0 to 100 scale): 0 | Plant response rating, Kochia (kochia [2]; Rate 125 g/ha, 0 to 100 scale): 0 | Plant response rating, Kochia (kochia [2]; [11]): 0 | Plant response rating, LS canarygrass (littleseed canarygrass; Rate 62 g/ha, 0 to 100 scale): 0 | Plant response rating, LS canarygrass (littleseed canarygrass; Rate 125 g/ha, 0 to 100 scale): 0 | Plant response rating, LS canarygrass (littleseed canarygrass; [11]): 0 | Plant response rating, Redroot pigweed (redroot pigweed [3]; Rate 62 g/ha, 0 to 100 scale): 0 | Plant response rating, Redroot pigweed (redroot pigweed [3]; Rate 125 g/ha, 0 to 100 scale): 0 | Plant response rating, Redroot pigweed (redroot pigweed [3]; [11]): 0 | Plant response rating, Scentless chamo (scentless chamomile; Rate 62 g/ha, 0 to 100 scale): 0 | Plant response rating, Scentless chamo (scentless chamomile; Rate 125 g/ha, 0 to 100 scale): 0 | Plant response rating, Scentless chamo (scentless chamomile; [11]): 0 | Plant response rating, Spring Barley (spring barley [4]; Rate 62 g/ha, 0 to 100 scale): 0 | Plant response rating, Spring Barley (spring barley [4]; Rate 125 g/ha, 0 to 100 scale): 0 | Plant response rating, Spring Barley (spring barley [4]; [11]): 0 | Plant response rating, Veronica hedera (ivyleaf speedwell; Rate 62 g/ha, 0 to 100 scale): 0 | Plant response rating, Veronica hedera (ivyleaf speedwell; Rate 125 g/ha, 0 to 100 scale): 0 | Plant response rating, Veronica hedera (ivyleaf speedwell; [11]): 0 | Plant response rating, Spring Wheat (spring wheat; Rate 62 g/ha, 0 to 100 scale): 0 | Plant response rating, Spring Wheat (spring wheat; Rate 125 g/ha, 0 to 100 scale): 0 | Plant response rating, Spring Wheat (spring wheat; [11]): 0 | Plant response rating, Wild buckwheat (wild buckwheat [5]; Rate 62 g/ha, 0 to 100 scale): 0 | Plant response rating, Wild buckwheat (wild buckwheat [5]; Rate 125 g/ha, 0 to 100 scale): 0 | Plant response rating, Wild buckwheat (wild buckwheat [5]; [11]): 0 | Plant response rating, Wild oat (wild oat; Rate 62 g/ha, 0 to 100 scale): 0 | Plant response rating, Wild oat (wild oat; Rate 125 g/ha, 0 to 100 scale): 0 | Plant response rating, Wild oat (wild oat; [11]): 0 | Plant response rating, Barley (winter) (winter barley; Rate 62 g/ha, 0 to 100 scale): 0 | Plant response rating, Barley (winter) (winter barley; Rate 125 g/ha, 0 to 100 scale): 0 | Plant response rating, Barley (winter) (winter barley; [11]): 0 | Plant response rating, Downy brome (downy brome; [12]): 40 | Plant response rating, Downy brome (downy brome; [13]): 60 | Plant response rating, Downy brome (downy brome; Rate 250 g/ha, 0 to 100 scale): 20 | Plant response rating, Galium (galium [6]; [12]): 10 | Plant response rating, Galium (galium [6]; [13]): 15 | Plant response rating, Galium (galium [6]; Rate 250 g/ha, 0 to 100 scale): 100 | Plant response rating, Jointed goatgra (jointed goatgrass; [12]): 15 | Plant response rating, Jointed goatgra (jointed goatgrass; [13]): 70 | Plant response rating, Jointed goatgra (jointed goatgrass; Rate 250 g/ha, 0 to 100 scale): 60 | Plant response rating, Kochia (kochia [7]; [12]): 0 | Plant response rating, Kochia (kochia [7]; [13]): 0 | Plant response rating, Kochia (kochia [7]; Rate 250 g/ha, 0 to 100 scale): 20 | Plant response rating, Lambsquarters (lambsquarters; [12]): 100 | Plant response rating, Lambsquarters (lambsquarters; [13]): 100 | Plant response rating, Lambsquarters (lambsquarters; Rate 250 g/ha, 0 to 100 scale): 100 | Plant response rating, Redroot pigweed (redroot pigweed [8]; [12]): 100 | Plant response rating, Redroot pigweed (redroot pigweed [8]; [13]): 100 | Plant response rating, Redroot pigweed (redroot pigweed [8]; Rate 250 g/ha, 0 to 100 scale): 90 | Plant response rating, Spring Barley (spring barley [9]; [12]): 5 | Plant response rating, Spring Barley (spring barley [9]; [13]): 10 | Plant response rating, Spring Barley (spring barley [9]; Rate 250 g/ha, 0 to 100 scale): 60 | Plant response rating, Sunflower (sunflower; [12]): 10 | Plant response rating, Sunflower (sunflower; [13]): 5 | Plant response rating, Sunflower (sunflower; Rate 250 g/ha, 0 to 100 scale): 20 | Plant response rating, Wild buckwheat (wild buckwheat [10]; [12]): 30 | Plant response rating, Wild buckwheat (wild buckwheat [10]; [13]): 30 | Plant response rating, Wild buckwheat (wild buckwheat [10]; Rate 250 g/ha, 0 to 100 scale): 40 | Plant response rating, Windgrass (windgrass; [12]): 100 | Plant response rating, Windgrass (windgrass; [13]): 100
